Assay results: article PMC9598282 (Antibiotics, 2022)
Values after ≈ are worked out from the molar mass of the structure shown. Read-outs that look alike come from different tables or passages of the source. Bridge positions count the residues as written; N and C are the ends. Square brackets hold non-standard residues; d marks the D form. Peptide text beside a SMILES is read from it. Dab = NCC[C@H](N)C(=O)O

How the values were obtained:
A. baumannii LAC-4 = assay type: cell-based, Acinetobacter baumannii; conditions: LAC-4, 18 h
Method: (§1) For the preparation of the bacterial solution, overnight grown culture was diluted in 0.85% saline solution, adjusted to 0.5 McFarland turbidity and further diluted in Mueller–Hinton broth for inoculation to a final concentration of 5 × 10^5 colony forming units/mL (CFU/mL). The agents were serially diluted two-fold in a 96-well plate, and equal volumes of bacterial solution were subsequently added to the designated wells. The well consisting of bacterial solution served as the positive control, while the well containing only media served as the negative control. The plate was then incubated at 37 °C for 18 h. After incubation, an Emax Plus microplate reader (Molecular Devices, Union City, CA, USA) was used to measure the optical density (OD) at a wavelength of 590 nm to confirm the turbidity. The antibacterial activity corresponded to the MIC, which is defined as the lowest concentration of the agent necessary to inhibit visible bacterial growth.

A. baumannii 92247 [1] = assay type: cell-based, Acinetobacter baumannii; conditions: 92247, 18 h
Method: as §1

A. baumannii ATCC 17978 = assay type: cell-based, Acinetobacter baumannii; conditions: ATCC 17978, 18 h
Method: as §1

P. aeruginosa PA 107092 = test: MIC, broth microdilution; assay type: cell-based, Pseudomonas aeruginosa; conditions: β-lactamase harboring isolate
Method: as §1

P. aeruginosa PA 108590 = test: MIC, broth microdilution; assay type: cell-based, Pseudomonas aeruginosa; conditions: β-lactamase harboring isolate
Method: as §1

P. aeruginosa PA 88949 = test: MIC, broth microdilution; assay type: cell-based, Pseudomonas aeruginosa; conditions: β-lactamase harboring isolate
Method: as §1

P. aeruginosa PA 109084 [2] = test: MIC, broth microdilution; assay type: cell-based, Pseudomonas aeruginosa; conditions: β-lactamase harboring isolate
Method: as §1

P. aeruginosa PA 86052 [3] = test: MIC, broth microdilution; assay type: cell-based, Pseudomonas aeruginosa; conditions: β-lactamase harboring isolate
Method: as §1

E. cloacae 118564 = test: Checkerboard assay; assay type: cell-based, Enterobacter cloacae
Method: (§2) The adjuvant properties of the guanidinylated polymyxins were evaluated using the checkerboard assay as previously described. The bacterial solution was prepared as described in the antimicrobial susceptibility assay. The antibiotic of interest and the adjuvant were serially diluted two-fold along the x- and y-axis on a 96-well plate, respectively, resulting in varying concentrations of both agents in each well. Equal volumes of bacterial solution were added to the designated wells. The well consisting of bacterial solution served as the positive control, while the wells containing only media served as the negative control. The plate was then incubated at 37 °C for 18 h. After incubation, an Emax Plus microplate reader (Molecular Devices, Union City, CA, USA) was used to measure the OD at a wavelength of 590 nm to confirm the turbidity. The fractional inhibitory concentration (FIC) index was then determined to establish the relationship between the antibiotic and adjuvant. The FIC index corresponds to the sum of the FICs of the antibiotic and adjuvant. The FIC of each agent is calculated by dividing its MIC when it is used in combination by its MIC when used alone. FIC indices ≤0.5, 0.5 < x ≤ 4 and >4 indicate synergy, additivity and antagonism, respectively.

A. baumannii 92247 [4] = test: microbe, parasite or virus in culture; assay type: cell-based, Acinetobacter baumannii
Method in brief: (§3)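 Two-fold serial dilutions of antibiotic and guanidinylated polymyxin adjuvant crossed in checkerboard against bacterial inoculum prepared as for susceptibility testing; 18 h at 37 °C, growth read as OD590. FIC index = sum of each agent's MIC in combination divided by its MIC alone; ≤0.5 synergy, >0.5–4 additivity, >4 antagonism.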

A. baumannii AB027 = test: microbe, parasite or virus in culture; assay type: cell-based, Acinetobacter baumannii
Method in brief: as §3

A. baumannii 110193 = test: microbe, parasite or virus in culture; assay type: cell-based, Acinetobacter baumannii
Method in brief: as §3

P. aeruginosa P259-96918 = test: Checkerboard assay; assay type: cell-based, Pseudomonas aeruginosa
Method: as §2

P. aeruginosa 101243 = test: Checkerboard assay; assay type: cell-based, Pseudomonas aeruginosa
Method: as §2

[5] = system: P. aeruginosa P262-101856; test: Checkerboard assay; assay type: cell-based, Pseudomonas aeruginosa
Method: as §2

[6] = system: P. aeruginosa P264-104354; test: Checkerboard assay; assay type: cell-based, Pseudomonas aeruginosa
Method: as §2

E. cloacae 121187 = test: microbe, parasite or virus in culture; assay type: cell-based, Enterobacter cloacae
Method: as §2

P. aeruginosa 114228 = test: microbe, parasite or virus in culture; assay type: cell-based, Pseudomonas aeruginosa
Method in brief: as §3

E. coli ATCC 25922 = assay type: cell-based, Escherichia coli; conditions: ATCC 25922, 18 h
Method: as §1

P. aeruginosa PA 109084 [7] = assay type: cell-based, Pseudomonas aeruginosa
Method: as §2

P. aeruginosa PA 86052 [8] = assay type: cell-based, Pseudomonas aeruginosa; conditions: PA 86052, 18 h
Method: as §2

[9] = agent alone, one value per checkerboard plate

## CC(C)C[C@@H]1NC(=O)[C@@H](Cc2ccccc2)NC(=O)[C@H](CCN)NC(=O)[C@@H](NC(=O)[C@H](CCN)NC(=O)[C@@H](N)[C@@H](C)O)CCNC(=O)[C@H]([C@@H](C)O)NC(=O)[C@H](CCN)NC(=O)[C@H](CCN)NC1=O [PMBN, polymyxin B nonapeptide] (H-T[Dab][Dab][Dab][dF]L[Dab][Dab]T; lactam 3-C (inferred); N-terminus assumed)
A. baumannii LAC-4
  MIC: >256 µg/mL
A. baumannii 92247 [1]
  MIC: >256 µg/mL
A. baumannii ATCC 17978
  MIC: >256 µg/mL
P. aeruginosa PA 107092
  MIC: 64 µg/mL (≈ 66.4 µM)
P. aeruginosa PA 108590
  MIC: 1 µg/mL (≈ 1.04 µM)
P. aeruginosa PA 88949
  MIC: 16 µg/mL (≈ 16.6 µM)
P. aeruginosa PA 109084 [2]
  MIC: 32 µg/mL (≈ 33.2 µM)
P. aeruginosa PA 86052 [3]
  MIC: 16 µg/mL (≈ 16.6 µM)
E. cloacae 118564; [9]
  MIC alone: > 256 µg/mL
E. cloacae 118564; with 8 μg/mL adjuvant
  Fold-potentiation of erythromycin: 4
  Fold-potentiation of rifampicin: 8
A. baumannii 92247 [4]; 92247, 18 h
  MIC alone: 256 µg/mL
A. baumannii 92247 [4]; with 8 μg/mL adjuvant
  Fold potentiation of aztreonam: 1
  Fold-potentiation of ceftazidime: 1
  Fold-potentiation of erythromycin: 1
  Fold-potentiation of rifampicin: 32
A. baumannii AB027; AB027, 18 h
  MIC alone: 256 µg/mL
A. baumannii AB027; [9]
  MIC alone: > 256 µg/mL
A. baumannii AB027; with 8 μg/mL adjuvant
  Fold potentiation of aztreonam: 2
  Fold-potentiation of ceftazidime: 2
  Fold-potentiation of erythromycin: 16
  Fold-potentiation of rifampicin: 64
A. baumannii 110193; 110193, 18 h
  MIC alone: 256 µg/mL
A. baumannii 110193; [9]
  MIC alone: > 256 µg/mL
A. baumannii 110193; with 1 μg/mL adjuvant
  Fold-potentiation of ceftazidime: 1
  Fold-potentiation of erythromycin: 4
  Fold-potentiation of rifampicin: 32
P. aeruginosa P259-96918; [9]
  MIC alone: > 256 µg/mL
P. aeruginosa P259-96918; with 4 μg/mL adjuvant
  Fold-potentiation of aztreonam: 8
  Fold-potentiation of ceftazidime: 4
  Fold-potentiation of erythromycin: 8
  Fold-potentiation of rifampicin: 128
P. aeruginosa 101243; [9]
  MIC alone: > 256 µg/mL
P. aeruginosa 101243; with 8 μg/mL adjuvant
  Fold-potentiation of aztreonam: 2
  Fold-potentiation of ceftazidime: 8
  Fold-potentiation of erythromycin: 1
  Fold-potentiation of rifampicin: 8
[5]; [9]
  MIC alone: > 256 µg/mL
[5]; with 8 μg/mL adjuvant
  Fold-potentiation of aztreonam: 8
  Fold-potentiation of ceftazidime: 4
  Fold-potentiation of erythromycin: 16
  Fold-potentiation of rifampicin: 16
[6]; [9]
  MIC alone: > 256 µg/mL
[6]; with 2 μg/mL adjuvant
  Fold-potentiation of aztreonam: 2
  Fold-potentiation of ceftazidime: 1
  Fold-potentiation of erythromycin: 1
  Fold-potentiation of rifampicin: 64
E. cloacae 121187; 121187, 18 h
  MIC alone: 256 µg/mL
E. cloacae 121187; [9]
  MIC alone: > 256 µg/mL
E. cloacae 121187; with 8 μg/mL adjuvant
  Fold-potentiation of erythromycin: 1
  Fold-potentiation of rifampicin: 1
P. aeruginosa 114228; 114228, 18 h
  MIC alone: 256 µg/mL
P. aeruginosa 114228; with 8 μg/mL adjuvant
  Fold-potentiation of aztreonam: 1
  Fold-potentiation of ceftazidime: 8
  Fold-potentiation of erythromycin: 1
  Fold-potentiation of rifampicin: 8
E. coli ATCC 25922
  MIC: >256 µg/mL
P. aeruginosa PA 109084 [7]; PA 109084, 18 h
  MIC adjuvant alone: 56 µM
P. aeruginosa PA 109084 [7]; adjuvant at 1 μg/mL as printed
  Fold potentiation of ceftazidime: 16
P. aeruginosa PA 109084 [7]; adjuvant at 1 (PMBN, GCol), 0.5 (GPMB) μg/mL as printed
  Fold potentiation of aztreonam: 16
P. aeruginosa PA 109084 [7]; with 8 μM avibactam, adjuvant at 2 μg/mL as printed
  Fold potentiation of ceftazidime: 4
P. aeruginosa PA 109084 [7]; with 8 μM avibactam, adjuvant at 2 (PMBN), 0.5 (GCol, GPMB) μg/mL as printed
  Fold potentiation of aztreonam: 16
P. aeruginosa PA 86052 [8]
  MIC adjuvant alone: 16 µM
